Tests used:
[1] = Hydrolysis of NBPT adduct-containing compositions at varying pH (OPPTS 835.2120), LC-MS monitoring; assay type: physicochemical; conditions: pH=4, 50° C.
Description: NBPT adduct-containing compositions were prepared by a method similar to that described in Example 1, with the exception that acetonitrile, rather than N-methylpyrrolidone was used as the solvent and, after <20 wt. % of free NBPT remained (based on UPLC testing), the acetonitrile was evaporated. As such, the NBPT in the “adduct-containing composition” subjected to hydrolysis according to the method of Example 2 is initially partially in adduct form and partially in free form (i.e., the composition includes both NBPT-containing adduct and free NBPT).
The NBPT adduct-containing compositions were hydrolyzed in accordance with OPPTS 835.2120 guidelines (https://www.regulations.gov/document?D=EPA-HQ-OPPT-2009-0152-0009), which are incorporated herein by reference. Specifically, samples comprising the NBPT adducts were subjected to various pH conditions (pH=4, pH=7, and pH=9) to evaluate the hydrolysis profiles at these varying pH values at 50° C. for 5 days. Hydrolysis of the NBPT adduct-containing compositions (by evaluating total NBPT adduct concentration as well as free NBPT concentration (i.e., NBPT in non-adduct form)) was monitored at hourly-to-daily intervals by liquid chromatography-mass spectroscopy (LC-MS), with secondary detection via ultraviolet (UV) detection at 200 nm. […]

[2] = NBPT hydrolysis over time in acetonitrile; assay type: physicochemical; conditions: in acetonitrile (no hydrolysis conditions)
From the text: FIGS. 4A and 4B present data on a study of NBPT hydrolysis over time in acetonitrile. As shown, little change is observed over the course of the study.

CCCCNP(N)(N)=S [free NBPT, N-(n-butyl) thiophosphoric triamide]
amount of free NBPT in the composition ([1]; day 3): minimal
amount of free NBPT in the composition ([1]; day 4): completely gone
change of overall amount over the course of the study [2]: not actively degraded
